Reference: publication PMC3424241, “The Octadecaneuropeptide ODN Protects Astrocytes against Hydrogen Peroxide-Induced Apoptosis via a PKA/MAPK-Dependent Mechanism” (PLoS ONE, 2012)

What was measured:
cultured rat astrocytes = test: Cell survival after H2O2, FDA fluorescence; type: cell-based; details: for protective effect of receptor ligand on H2O2-induced cell death: 30 min pre-incubation with ligand (OP 0.1 nM, [Ala15]ODN 0.1 nM, clonazepam 10 nM), then 1 h 300 µM H2O2; for effect of pathway inhibitor on the protective action of ODN: H89 20 µM, U0126 20 µM, U73122 10 µM, chelerythrine 0.1 µM; for effect of inhibitor on dbcAMP-promoted astroglial cell survival: H89 20 µM or U0126 20 µM, 1 h 300 µM H2O2 with dbcAMP 1 mM
Experimental: Secondary cultures of rat cortical astrocytes were prepared as previously described [64]with minor modifications. Briefly, cerebral hemispheres from newborn Wistar rats were collected in DMEM/F12 (2∶1; v/v) culture medium supplemented with 2 mM L-glutamine, 1‰ insulin, 5 mM HEPES, 0.4% glucose and 1% of the antibiotic-antimycotic solution. The tissues were dissociated mechanically with a syringe equipped with a 1-mm gauge needle, and filtered through a 100-µm sieve (Falcon, Franklin Lakes, NJ, USA). […] When cultures were confluent, astrocytes were isolated by shaking overnight the flasks on an orbital agitator. Adhesive cells were detached by trypsination and preplated for 5 min to discard contaminating microglial cells. Then, the non-adhering astrocytes were harvested and plated on 35-mm hydrophilic surface Petri dishes at a density of 3×10^5 cells/ml. […] The cells were incubated at 37°C in a humid atmosphere (5% CO2). […] All experiments were performed on 5- to 7-day-old secondary cultures.
Cultured cells were incubated at 37°C with fresh serum-free culture medium in the absence or presence of H2O2 and/or ODN for 1 h. Cells were then incubated for 10 min at 37°C with 0.3 µg/ml calcein-AM (producing green fluorescence in living cells), rinsed twice with culture medium without probe and examined on an inverted microscope (Leica, Heidelberg, Germany) equipped with a double pass filter.
For quantification of surviving astrocytes, cells were incubated for 8 min with 15 µg/ml FDA-AM, rinsed twice with phosphate-buffered saline (PBS) and lysed with a Tris/HCl solution containing 1% sodium dodecyl sulfate (SDS). Fluorescence was measured with excitation at 485 nm and emission at 538 nm, using a microplate reader (Bio-Tek FLx 800).

caspase-3 = test: Caspase-3 activity, fluorometric Z-DEVD-Rhodamine 110; type: cell-based, rat; details: for effect of inhibitor on the inhibitory action of ODN on H2O2-induced caspase-3 activity: H89 20 µM, U0126 20 µM, U73122 1 µM, chelerythrine 1 µM, 30 min pre-incubation, 1 h 300 µM H2O2 with ODN 0.1 nM
Experimental: (§1) Secondary cultures of rat cortical astrocytes were prepared as previously described [64]with minor modifications. Briefly, cerebral hemispheres from newborn Wistar rats were collected in DMEM/F12 (2∶1; v/v) culture medium supplemented with 2 mM L-glutamine, 1‰ insulin, 5 mM HEPES, 0.4% glucose and 1% of the antibiotic-antimycotic solution. The tissues were dissociated mechanically with a syringe equipped with a 1-mm gauge needle, and filtered through a 100-µm sieve (Falcon, Franklin Lakes, NJ, USA). Dissociated cells were resuspended in culture medium supplemented with 10% FBS, plated in 175-cm^2 flasks (Greiner Bio-one GmbH, Frickenhausen, Germany) and incubated at 37°C in a 5% CO2/[…] atmosphere. When cultures were confluent, astrocytes were isolated by shaking overnight the flasks on an orbital agitator. Adhesive cells were detached by trypsination and preplated for 5 min to discard contaminating microglial cells. Then, the non-adhering astrocytes were harvested and plated on 35-mm hydrophilic surface Petri dishes at a density of 3×10^5 cells/ml. For measurement of cell survival, caspase-3 activity and mitochondrial activity, cells were plated in hydrophilic surface 24-well plates at a density of 8×10^4 cells/ml. The cells were incubated at 37°C in a humid atmosphere (5% CO2). After 5 days (DIV5), more than 99% of the cells were labeled with antibodies against glial fibrillary acidic protein [65]. All experiments were performed on 5- to 7-day-old secondary cultures.
At the end of the incubation with test substances, cultured astrocytes were washed twice with PBS at 37°C, resuspended in DMEM (100 µl) and treated with fluorometric caspase-3 Apo-1 assay system. In brief, 100 µl of the cell suspension was incubated with 100 µl of kit buffer and caspase substrate in 96-well plates. Caspase-3 activity was calculated from the slope of the fluorescence measured every 15 min for 3 h with excitation at 485 nm and emission at 530 nm, and expressed as a percentage of the control.

ERK1 and ERK2 = test: ERK phosphorylation, Western blot; type: cell-based, rat; details: ODN 0.1 nM, 1 h; flumazenil 1 µM, cyclo1-8[DLeu5]OP 1 µM, H89 20 µM, U0126 20 µM
Experimental: as §1
Cultured cells were incubated at 37°C for 1 h with fresh serum-free medium in the absence or presence of test substances. Total proteins were extracted with lysis buffer containing 1% Triton X-100, 50 mM Tris/HCl and 10 mM EDTA. After centrifugation (20,000 g, 4°C, 15 min), the proteins contained in the supernatant were precipitated by addition of ice-cold 10% TCA. The extract was centrifuged (15,000 g, 4°C, 15 min) and washed three times with alcohol/ether. The pellet was denatured (100°C, 5 min) in 50 mM Tris/HCl (pH 7.5) containing 20% glycerol, 0.7 M 2-mercaptoethanol, 0.004% bromophenol blue and 3% SDS, and then migrated on a 10% SDS-polyacrylamide gel electrophoresis (PAGE). After separation, proteins were electrically transferred onto nitrocellulose membrane (Amersham, Les Ulis, France). […] Signal was quantified using an image analysis system (Biocom, Les Ulis, France).

[1] = test system: cAMP formation in astroglial cells (adenylyl cyclase); test: cAMP production, radioimmunoassay; type: cell-based, rat; details: antagonist 1 µM, 30 min pre-incubation with 0.1 mM IBMX; ODN 0.1 nM, 10 min
Experimental: Secondary cultures of rat cortical astrocytes were prepared as previously described [64]with minor modifications. Briefly, cerebral hemispheres from newborn Wistar rats were collected in DMEM/F12 (2∶1; v/v) culture medium supplemented with 2 mM L-glutamine, 1‰ insulin, 5 mM HEPES, 0.4% glucose and 1% of the antibiotic-antimycotic solution. The tissues were dissociated mechanically with a syringe equipped with a 1-mm gauge needle, and filtered through a 100-µm sieve (Falcon, Franklin Lakes, NJ, USA). Dissociated cells were resuspended in culture medium supplemented with 10% FBS, plated in 175-cm^2 flasks (Greiner Bio-one GmbH, Frickenhausen, Germany) and incubated at 37°C in a 5% CO2/[…] atmosphere. When cultures were confluent, astrocytes were isolated by shaking overnight the flasks on an orbital agitator. Adhesive cells were detached by trypsination and preplated for 5 min to discard contaminating microglial cells. Then, the non-adhering astrocytes were harvested and plated on 35-mm hydrophilic surface Petri dishes at a density of 3×10^5 cells/ml. […]
Cultured cells were pre-incubated for 30 min in serum-free medium containing 0.1 mM IBMX to inhibit phosphodiesterases, and then incubated in the same solution, in the presence or absence of test substances. […] The concentration of cAMP was measured by using a cAMP RIA kit. […]

[2] = test system: glutathione (GSH) in cultured astrocytes; test: Intracellular glutathione content, mBCl fluorescence; type: cell-based, rat; details: antagonist 1 µM, 30 min pre-incubation; ODN 0.1 nM, 1 h; flumazenil statement covers control and H2O2-treated cells
Experimental: as §1
Reduced GSH was measured by using the thiol-reactive probe mBCl. At the end of the treatment period, the culture medium was removed and the cells were incubated with the mBCl probe (40 µM) at 37°C for 30 min and then washed twice with PBS. Fluorescence intensity was measured with excitation at 360 nm and emission at 485 nm, using a microplate reader (Bio-Tek FLx 800).

[3] = 30 min pre-incubation, then 1 h 300 µM H2O2 with ODN 0.1 nM, FDA fluorescence

| Compound | effect of pathway inhibitor on the protective action of ODN (cultured rat astrocytes; [3]) | effect of inhibitor on the inhibitory action of ODN on H2O2-induced caspase-3 activity (caspase-3) | effect of antagonist or inhibitor on ODN-induced ERK phosphorylation (ERK1 and ERK2) | other results |
| --- | --- | --- | --- | --- |
| [Ala^15]ODN: inactive ODN analog (QATVGDVNTDRPGLADLK; Octadecaneuropeptide; UniProt P11030 34-51, looked up, variant L15A) |  |  |  | protective effect of receptor ligand on H2O2-induced cell death (cultured rat astrocytes; FDA fluorescence): devoid of protective activity |
| O=C1CN=C(c2ccccc2Cl)c2cc([N+](=O)[O-])ccc2N1 [clonazepam] |  |  |  | protective effect of receptor ligand on H2O2-induced cell death (cultured rat astrocytes; FDA fluorescence): unable to block the effect of H2O2 |
| COc1ccc2c(c1)CC[C@@H]1[C@@H]2CC[C@]2(C)[C@@H](NCCCCCCN3C(=O)C=CC3=O)CC[C@@H]12 [U73122] | did not modify the protective effect of ODN | neither U73122 nor chelerythrine could suppress the effect of ODN |  |  |
| COc1ccc2c(c[n+](C)c3c4cc5c(cc4ccc23)OCO5)c1OC [chelerythrine] | did not modify the protective effect of ODN | neither U73122 nor chelerythrine could suppress the effect of ODN |  |  |
| N#CC(=C(/N)Sc1ccccc1N)/C(C#N)=C(/N)Sc1ccccc1N [U0126] | totally abrogated the protective action of ODN | abrogated the inhibitory effect of ODN on H2O2-induced caspase-3 activity | suppressed | effect of inhibitor on dbcAMP-promoted astroglial cell survival (cultured rat astrocytes; 30 min pre-incubation): suppressed |
| O=S(=O)(NCCNC/C=C/c1ccc(Br)cc1)c1cccc2cnccc12 [H89] | totally abrogated the protective action of ODN | abrogated the inhibitory effect of ODN on H2O2-induced caspase-3 activity | suppressed | effect of inhibitor on dbcAMP-promoted astroglial cell survival (cultured rat astrocytes; 30 min pre-incubation): suppressed |
| CCCC(=O)Nc1ncnc2c1ncn2[C@@H]1O[C@@H]2COP(=O)(O)O[C@H]2[C@H]1OC(=O)CCC [dbcAMP, N^6,2′-O-dibutyryladenosine 3′,5′ cyclic monophosphate] |  |  |  | protective effect of cAMP analog on H2O2-evoked cell death (cultured rat astrocytes; dbcAMP 1 mM, 1 h 300 µM H2O2, FDA fluorescence): mimicked the protective effect of ODN on H2O2-evoked cell death; effect of cAMP analog on H2O2-evoked caspase-3 activation (caspase-3; dbcAMP 1 mM, 1 h 300 µM H2O2): mimicked the effect ODN on H2O2-evoked caspase-3 activation |
| CCOC(=O)c1ncn2c1CN(C)C(=O)c1cc(F)ccc1-2 [flumazenil] |  |  | did not affect ODN-induced ERK phosphorylation | effect of receptor antagonist on the glioprotective action of ODN (cultured rat astrocytes; antagonist 1 µM, 30 min pre-incubation, then 1 h 300 µM H2O2 with ODN 0.1 nM, FDA fluorescence): did not affect the protective effect of ODN; effect of antagonist on ODN-stimulated cAMP formation [1]: did not affect the increase of cAMP induced by ODN; effect of antagonist on ODN-stimulated GSH formation [2]: did not impair the effect of ODN on glutathione production neither in control nor in H2O2-treated cells |
